Measured values: the CheMixHub viscosity set
± gives the uncertainty stated by the source.

Experiment: xn = mol fraction of the nth substance listed

FC(F)(Cl)Cl + CC(F)F
101 kPa, x1 = 0.606
Conditions	viscosity [mPa·s]
295.47 K	0.199 ± 0.0024
311.17 K	0.1745 ± 0.0022

CCCC(=O)O + Cc1cccc(O)c1
viscosity [mPa·s], 101 kPa
Conditions	x1 = 0.1119	x1 = 0.2209	x1 = 0.3191	x1 = 0.4306	x1 = 0.5314	x1 = 0.6298	x1 = 0.7257	x1 = 0.8194	x1 = 0.9108
298.15 K	10.28 ± 0.77	8.292 ± 0.64	6.808 ± 0.55	5.408 ± 0.46	4.362 ± 0.38	3.51 ± 0.31	2.822 ± 0.25	2.272 ± 0.21	1.845 ± 0.17
308.15 K	6.028 ± 0.5	5.153 ± 0.45	4.446 ± 0.39	3.724 ± 0.33	3.137 ± 0.28	2.619 ± 0.24	2.167 ± 0.2	1.782 ± 0.17	1.471 ± 0.14
318.15 K	4.743 ± 0.42	4.158 ± 0.37	3.662 ± 0.32	3.14 ± 0.28	2.707 ± 0.24	2.316 ± 0.21	1.957 ± 0.18	1.621 ± 0.15	1.293 ± 0.12

CCCC(=O)O + O
Conditions	viscosity [mPa·s]
293.15 K, 101 kPa, x1 = 0.015	1.31 ± 0.01
293.15 K, 101 kPa, x1 = 0.034	1.64 ± 0.02
293.15 K, 101 kPa, x1 = 0.078	2.41 ± 0.02
293.15 K, 101 kPa, x1 = 0.165	3.24 ± 0.04
293.15 K, 101 kPa, x1 = 0.316	3.71 ± 0.05
293.15 K, 101 kPa, x1 = 0.497	3.6 ± 0.06
293.15 K, 101 kPa, x1 = 0.664	3.25 ± 0.06
293.15 K, 101.33 kPa, x1 = 0.0222	1.332 ± 0.013
293.15 K, 101.33 kPa, x1 = 0.0806	2.265 ± 0.023
293.15 K, 101.33 kPa, x1 = 0.17	3.095 ± 0.031
298.15 K, 101 kPa, x1 = 0.006288	0.973 ± 0.026
298.15 K, 101 kPa, x1 = 0.01294	1.065 ± 0.029
298.15 K, 101 kPa, x1 = 0.02	1.152 ± 0.031
298.15 K, 101 kPa, x1 = 0.02743	1.248 ± 0.034
298.15 K, 101 kPa, x1 = 0.03475	1.344 ± 0.036
298.15 K, 101 kPa, x1 = 0.04154	1.44 ± 0.039
298.15 K, 101 kPa, x1 = 0.04898	1.55 ± 0.042
298.15 K, 101 kPa, x1 = 0.05981	1.695 ± 0.046
298.15 K, 101 kPa, x1 = 0.07342	1.881 ± 0.051
298.15 K, 101 kPa, x1 = 0.08697	2.038 ± 0.055
298.15 K, 101 kPa, x1 = 0.1045	2.222 ± 0.06
298.15 K, 101 kPa, x1 = 0.1191	2.365 ± 0.064
298.15 K, 101 kPa, x1 = 0.133	2.463 ± 0.066
298.15 K, 101 kPa, x1 = 0.144	2.538 ± 0.068
298.15 K, 101 kPa, x1 = 0.17	2.699 ± 0.073
298.15 K, 101 kPa, x1 = 0.2	2.823 ± 0.076
298.15 K, 101 kPa, x1 = 0.237	2.941 ± 0.079
298.15 K, 101 kPa, x1 = 0.277	3.039 ± 0.081
298.15 K, 101 kPa, x1 = 0.321	3.121 ± 0.084
298.15 K, 101 kPa, x1 = 0.36	3.129 ± 0.084
298.15 K, 101 kPa, x1 = 0.408	3.136 ± 0.084
298.15 K, 101 kPa, x1 = 0.472	3.095 ± 0.083
298.15 K, 101 kPa, x1 = 0.529	3.032 ± 0.081
298.15 K, 101 kPa, x1 = 0.618	2.861 ± 0.076
298.15 K, 101 kPa, x1 = 0.669	2.702 ± 0.072
298.15 K, 101 kPa, x1 = 0.816	2.249 ± 0.06
308.15 K, 101 kPa, x1 = 0.006288	0.777 ± 0.021
308.15 K, 101 kPa, x1 = 0.01294	0.844 ± 0.023
308.15 K, 101 kPa, x1 = 0.02	0.911 ± 0.024
308.15 K, 101 kPa, x1 = 0.02743	0.979 ± 0.026
308.15 K, 101 kPa, x1 = 0.03475	1.048 ± 0.028
308.15 K, 101 kPa, x1 = 0.04154	1.12 ± 0.03
308.15 K, 101 kPa, x1 = 0.04898	1.201 ± 0.032
308.15 K, 101 kPa, x1 = 0.05981	1.308 ± 0.035
308.15 K, 101 kPa, x1 = 0.07342	1.445 ± 0.039
308.15 K, 101 kPa, x1 = 0.08697	1.563 ± 0.042
308.15 K, 101 kPa, x1 = 0.1045	1.695 ± 0.046
308.15 K, 101 kPa, x1 = 0.1191	1.769 ± 0.048
308.15 K, 101 kPa, x1 = 0.133	1.873 ± 0.05
308.15 K, 101 kPa, x1 = 0.144	1.932 ± 0.052
308.15 K, 101 kPa, x1 = 0.17	2.049 ± 0.055
308.15 K, 101 kPa, x1 = 0.2	2.15 ± 0.058
308.15 K, 101 kPa, x1 = 0.237	2.243 ± 0.06
308.15 K, 101 kPa, x1 = 0.277	2.322 ± 0.062
308.15 K, 101 kPa, x1 = 0.321	2.392 ± 0.064
308.15 K, 101 kPa, x1 = 0.36	2.415 ± 0.065
308.15 K, 101 kPa, x1 = 0.408	2.415 ± 0.065
308.15 K, 101 kPa, x1 = 0.472	2.398 ± 0.064
308.15 K, 101 kPa, x1 = 0.529	2.358 ± 0.063
308.15 K, 101 kPa, x1 = 0.618	2.248 ± 0.06
308.15 K, 101 kPa, x1 = 0.669	2.142 ± 0.057
308.15 K, 101 kPa, x1 = 0.816	1.819 ± 0.049
313.15 K, 101.33 kPa, x1 = 0.0222	0.848 ± 0.0085
313.15 K, 101.33 kPa, x1 = 0.0806	1.327 ± 0.013
313.15 K, 101.33 kPa, x1 = 0.17	1.786 ± 0.018

CCCCNCCCC + CCC(C)O
viscosity [mPa·s]
Conditions	298.15 K	303.15 K	308.15 K	318.15 K
101 kPa, x1 = 0.008423	–	2.446 ± 0.016	–	–
101 kPa, x1 = 0.01776	–	2.42 ± 0.016	–	–
101 kPa, x1 = 0.02719	–	2.398 ± 0.016	–	–
101 kPa, x1 = 0.03174	–	2.389 ± 0.016	–	–
101 kPa, x1 = 0.04204	–	2.369 ± 0.016	–	–
101 kPa, x1 = 0.0502	–	2.353 ± 0.016	–	–
101 kPa, x1 = 0.06011	–	2.332 ± 0.016	–	–
101 kPa, x1 = 0.06621	–	2.32 ± 0.015	–	–
101 kPa, x1 = 0.07608	–	2.299 ± 0.015	–	–
101.33 kPa, x1 = 0.0594	2.662	–	1.888	1.409
101.33 kPa, x1 = 0.0839	2.525	–	1.79	1.328
101.33 kPa, x1 = 0.1282	2.305	–	1.657	1.24
101.33 kPa, x1 = 0.1858	2.06	–	1.516	1.147
101.33 kPa, x1 = 0.2618	1.787	–	1.344	1.054
101.33 kPa, x1 = 0.3612	1.511	–	1.181	0.948
101.33 kPa, x1 = 0.4306	1.373	–	1.089	0.886
101.33 kPa, x1 = 0.5042	1.246	–	1.012	0.827
101.33 kPa, x1 = 0.5658	1.16	–	0.952	0.784
101.33 kPa, x1 = 0.6215	1.095	–	0.898	0.753
101.33 kPa, x1 = 0.6856	1.031	–	0.855	0.712
101.33 kPa, x1 = 0.7458	0.986	–	0.818	0.696
101.33 kPa, x1 = 0.794	0.959	–	0.803	0.684
101.33 kPa, x1 = 0.8584	0.905	–	0.76	0.681
101.33 kPa, x1 = 0.9138	0.859	–	0.733	0.661

CC(CC(C)(C)C)CC(C)(C)CC(C)(C)C (configuration not stated) + CCCCCCCCCCCCCCCC
298.15 K, 101.33 kPa
Conditions	viscosity [mPa·s]
x2 = 0.0974	3.252 ± 0.039
x2 = 0.2011	3.181 ± 0.037
x2 = 0.3015	3.128 ± 0.035
x2 = 0.3995	3.09 ± 0.034
x2 = 0.4995	3.064 ± 0.032
x2 = 0.6002	3.05 ± 0.031
x2 = 0.7004	3.045 ± 0.03
x2 = 0.8	3.049 ± 0.029

CCOC(=O)C(=O)OCC + CC(C)=O
303.15 K, 101 kPa
Conditions	viscosity [mPa·s]
x1 = 0.0571	0.381 ± 0.0042
x1 = 0.1199	0.487 ± 0.0051
x1 = 0.1893	0.599 ± 0.0061
x1 = 0.2664	0.715 ± 0.0072
x1 = 0.3527	0.844 ± 0.0084
x1 = 0.4497	0.979 ± 0.0096
x1 = 0.5602	1.123 ± 0.011
x1 = 0.6858	1.274 ± 0.012
x1 = 0.8308	1.453 ± 0.014

CCCCNCCCC + CCCO
viscosity [mPa·s], 101.33 kPa
Conditions	x1 = 0.0988	x1 = 0.1893	x1 = 0.3012	x1 = 0.4041	x1 = 0.4964	x1 = 0.59	x1 = 0.693	x1 = 0.7809	x1 = 0.8947
303.15 K	1.681 ± 0.02	1.564 ± 0.019	1.404 ± 0.017	1.276 ± 0.016	1.176 ± 0.015	1.084 ± 0.013	0.9942 ± 0.013	0.9209 ± 0.012	0.832 ± 0.011
313.15 K	1.309 ± 0.016	1.228 ± 0.015	1.123 ± 0.014	1.03 ± 0.013	0.9494 ± 0.012	0.8887 ± 0.011	0.8255 ± 0.011	0.7761 ± 0.01	0.7157 ± 0.0095

CCCCNCCCC + CCCCCCCCCCO
viscosity [mPa·s], 101.33 kPa
Conditions	x1 = 0.0981	x1 = 0.1964	x1 = 0.286	x1 = 0.3857	x1 = 0.4851	x1 = 0.5846	x1 = 0.6877	x1 = 0.7856	x1 = 0.8866
303.15 K	7.771 ± 0.078	6.615 ± 0.069	5.545 ± 0.06	4.423 ± 0.05	3.439 ± 0.039	2.607 ± 0.03	1.944 ± 0.023	1.445 ± 0.017	1.073 ± 0.013
313.15 K	5.959 ± 0.064	4.985 ± 0.056	4.15 ± 0.047	3.305 ± 0.038	2.611 ± 0.03	2.021 ± 0.024	1.545 ± 0.019	1.199 ± 0.015	0.9135 ± 0.012

CC(=O)OC(C)C + C1CCCCC1
viscosity [mPa·s], 101 kPa
Conditions	298.15 K	308.15 K
x1 = 0.0846	0.8036 ± 0.0051	0.6718 ± 0.0044
x1 = 0.1126	0.7518 ± 0.0049	0.6494 ± 0.0043
x1 = 0.1665	0.705 ± 0.0046	0.612 ± 0.0041
x1 = 0.2671	0.636 ± 0.0042	0.5559 ± 0.0038
x1 = 0.3555	0.594 ± 0.004	0.5212 ± 0.0036
x1 = 0.4881	0.5485 ± 0.0038	0.4824 ± 0.0034
x1 = 0.5911	0.5241 ± 0.0036	0.462 ± 0.0033
x1 = 0.6773	0.5099 ± 0.0035	0.4512 ± 0.0032
x1 = 0.7902	0.4951 ± 0.0035	0.441 ± 0.0032
x1 = 0.8873	0.4932 ± 0.0035	0.4366 ± 0.0031
x1 = 0.9593	0.4903 ± 0.0034	0.4349 ± 0.0031
x2 = 0.07507	–	0.4324 ± 0.0096
x2 = 0.2053	–	0.4373 ± 0.0096
x2 = 0.298	–	0.4444 ± 0.0097
x2 = 0.3967	–	0.4564 ± 0.0099
x2 = 0.505	–	0.4759 ± 0.01
x2 = 0.6014	–	0.4989 ± 0.01
x2 = 0.714	–	0.5351 ± 0.011
x2 = 0.7973	–	0.5787 ± 0.012
x2 = 0.8978	–	0.6451 ± 0.013
